Data published in paper PMC5651845, “A New Generation of Arachidonic Acid Analogues as Potential Neurological Agent Targeting Cytosolic Phospholipase A2” (Scientific Reports, 2017).

Tests used:
recombinant cPLA2 [1] = target: T1, recombinant cPLA2 (Homo sapiens, UniProt P47712); experiment: EnzChek phospholipase A2 fluorogenic assay (% activity) at 10 μM; format: biochemical; settings: 10 μM compound
T1 construct: purchased US Biological P4074-03R
T1 sequence (P47712 1-749): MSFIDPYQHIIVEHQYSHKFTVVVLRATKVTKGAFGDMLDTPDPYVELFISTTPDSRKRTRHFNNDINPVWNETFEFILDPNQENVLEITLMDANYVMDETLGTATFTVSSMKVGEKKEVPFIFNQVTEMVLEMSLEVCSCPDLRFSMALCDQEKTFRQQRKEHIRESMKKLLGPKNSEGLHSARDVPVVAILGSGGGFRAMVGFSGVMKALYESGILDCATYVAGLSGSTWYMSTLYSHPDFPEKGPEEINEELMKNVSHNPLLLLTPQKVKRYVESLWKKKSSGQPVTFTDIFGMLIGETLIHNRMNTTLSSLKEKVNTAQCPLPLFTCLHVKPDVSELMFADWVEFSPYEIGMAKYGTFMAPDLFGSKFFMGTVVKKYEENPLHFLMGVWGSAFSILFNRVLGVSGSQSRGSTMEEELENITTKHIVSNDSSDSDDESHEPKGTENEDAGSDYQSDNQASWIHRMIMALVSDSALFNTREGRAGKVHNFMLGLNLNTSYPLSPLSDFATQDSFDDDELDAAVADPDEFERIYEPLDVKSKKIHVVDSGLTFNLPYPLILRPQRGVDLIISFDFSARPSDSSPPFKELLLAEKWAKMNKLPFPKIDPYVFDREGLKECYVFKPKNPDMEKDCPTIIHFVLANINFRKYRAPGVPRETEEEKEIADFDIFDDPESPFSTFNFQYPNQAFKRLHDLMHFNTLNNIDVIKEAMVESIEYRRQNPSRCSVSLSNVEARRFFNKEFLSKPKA
Experimental: The compounds were evaluated with a fluorogenic PLA2 assay kit (EnzChek® Phospholipase A2 Assay Kit, Catalog No: E10217) at a standard 10 μM concentration. Potential inhibitors were determined by their ability to lower cPLA2 activity to a greater extent than 1a.
The assay was conducted according to the manufacturer’s instruction (E10217, Molecular Probes) with slight modification. Briefly, substrate solution was separately prepared by mixing 5 μL of DOPG, 5 μL of DOPC and 5 μL of substrate respectively in 1.5 mL of 1X phospholipase A2 reaction buffer. The mixture was vortexed vigorously for 3 min before allowing to stand at room temperature for 1 h. 48 μL of 1X phospholipase A2 reaction buffer were added into each well of a 96-wells plate. This was followed by addition of 1 μL of recombinant cPLA2 (P4074-03R, US Biological) and 1 μL of 1 mM of the respective compound dissolved in DMSO. The final concentration of the test compound achieved is 10 μM. The reaction was initiated by adding 50 μL of the substrate solution and incubating at room temperature for 1 h. Fluorescence was measured using a Varioskan plate reader (Thermo Scientific, MA, USA) by exciting at 485 nm, while fluorescence emission was detected at 515 nm. Positive control was performed when 1 μL of test compound was replaced by vehicle DMSO. % activity was expressed as the mean value of duplicate wells from three experiments. % activity was calculated by the following formula1 %activity=fluorescenceoftestedwell−background/fluorescenceofpostivecontrol−background

recombinant cPLA2 [2] = target: T1, recombinant cPLA2; experiment: EnzChek phospholipase A2 fluorogenic assay (IC50); format: biochemical
Experimental: The assay was conducted as described above. Instead of adding a fixed concentration of the test compound, various concentrations of compound were reconstituted in DMSO. 48 μL of 1X phospholipase A2 reaction buffer were added into each well of a 96-wells plate. This was followed by addition of 1 μL of recombinant cPLA2 (P4074-03R, US Biological) and 1 μL of the respective concentration of the test compound dissolved in DMSO. The reaction was initiated by adding 50 μL of the substrate solution and incubating at room temperature for 1 h. Fluorescence was measured using a Varioskan plate reader by exciting at 485 nm, while fluorescence emission was detected at 515 nm. Positive control was performed when 1 μL of test compound was replaced by vehicle DMSO. IC50 was expressed as the mean value of duplicate wells from three experiments.

[3] = Aqueous solubility (Multiscreen Solubility filter plates); format: physicochemical; settings: aqueous buffer, kinetic from dmso stock; pH 7.4, 24 h, 25 °C
Experimental: Solubility determinations were carried out on Multiscreen® Solubility filter plates (Millipore-MSSLBPC10) from Millipore Corporation (MA, USA) following the protocol (PC2445EN00) from the manufacturer.

[4] = target: T2, sPLA2, human recombinant type V (Homo sapiens, UniProt P39877); experiment: EnzChek phospholipase A2 fluorogenic assay (selectivity) with sPLA2; format: biochemical; settings: 10 μM, relative to DMSO control
T2 construct: purchased Cayman Chemical 10009563
T2 sequence (P39877 21-138): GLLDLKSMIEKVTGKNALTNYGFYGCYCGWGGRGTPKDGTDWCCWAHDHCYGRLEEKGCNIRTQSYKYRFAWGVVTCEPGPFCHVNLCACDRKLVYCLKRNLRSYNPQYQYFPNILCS
Experimental: To further explore their selectivity towards cPLA2, 10 μM of 2g and 2i were evaluated for their inhibition against recombinant sPLA2 using the fluorogenic PLA2 assay (Fig. 3C).
The assay was conducted as described above. Instead of adding cPLA2, it was replaced by sPLA2. 48 μL of 1X phospholipase A2 reaction buffer was added into each well of a 96-wells plate. This was followed by addition of 1 μL of sPLA2, human recombinant type V (10009563, Cayman Chemical) and 1 μL of 1 mM of the respective compound or thioetheramide-PC (62750, Cayman Chemical) dissolved in DMSO. The final concentration of the test compound achieved is 10 μM. The reaction was initiated by adding 50 μL of the substrate solution and incubating at room temperature for 1 h. Fluorescence was measured using a Varioskan plate reader by exciting at 485 nm, while fluorescence emission was detected at 515 nm. Positive control was performed when 1 μL of test compound was replaced by vehicle DMSO. % activity was expressed as the mean value of duplicate wells from four experiments. % activity was calculated by the following formula:2 %activity=fluorescenceoftestedwell−background/fluorescenceofpostivecontrol−background

- inhibition at 10 µM (recombinant cPLA2 [1]): 88.5%
- remaining activity at 10 µM (recombinant cPLA2 [1]; 1 h, room temperature): 11.5 ± 1%
- IC50 (recombinant cPLA2 [2]): 2.9 ± 0.2 µM
- fold stronger cPLA2 inhibition than 1a (from IC50) (recombinant cPLA2 [2]; relative to 1a): 5.5 fold
- solubility at 24 h [3]: > 100 µM
Compound: CCCCC/C=C\C/C=C\C/C=C\C/C=C\CCCCC(=O)Nc1cccc(C(=O)O)c1 [2i]
- sPLA2 activity [4]: did not provide a significant change in sPLA2 activity
